Reference: US20260274859A1, “FUSED POLYCYCLIC DERIVATIVE AND USE THEREOF” (ZHEJIANG HISUN PHARMACEUTICAL CO., LTD., priority 2023, published 2026)

Legend:
Type in all cases: cell-based
[1] = system: HL60 cells; assay: Inhibition of proliferation of HL60 tumor cells (CCK8 or CTG); details: Homo sapiens, HL-60
Experimental: The effect of the compound of the present disclosure on the proliferation of tumor cells was determined using the following method. The HL60 cells used in the method were purchased from Nanjing Kebai Biotechnology Co., Ltd., and the kit was the Cell Counting Kit-8/CCK-8 kit of MCE Company (article number: HY—K0301, specification: 3000T).
(1) HL60 cells in logarithmic growth phase were prepared into a cell suspension. The cell suspension was added into a 96-well plate at 5000 cells/well. The 96-well cell culture plate was placed in a CO2 incubator for 4 h of incubation of suspended cells or for 12 h of incubation of adherent cells.
(2) The compounds to be tested were diluted with IMDM complete culture medium to reach a concentration twice the testing concentration, and added to the corresponding wells.
(§1) (3) After the corresponding concentrations of the compounds to be tested were added, the plates were incubated in an incubator with 5% carbon dioxide at 37° C., and then the cell viability rate at each drug concentration was determined by CCK8 or CTG method. In addition, the IC50 value was calculated.

[2] = system: A549 cells; assay: Inhibition of proliferation of A549 cells (CCK8 or CTG); details: Homo sapiens, maximum concentration 10 μM, 5-fold dilution
Experimental: (1) A549 cells in the logarithmic growth phase were digested with 0.25% trypsin and counted. The cells were inoculated into 96-well plates at 2000 cells per well, and the 96-well plates were placed in an incubator containing 5% CO2 at 37° C. for 12 h of culture.
(§2) (2) Six concentration gradients for the compounds to be tested (with the maximum drug concentration of 10 μM and 5-fold dilution) were set. After the cells adhered to the wall, the compounds to be tested were serially diluted with DMSO, then diluted with 1640 complete medium to reach a concentration 1000 times the final concentration, and added to the corresponding wells.
as §1

[3] = system: HK-2 cells; assay: Inhibition of proliferation of HK-2 cells (normal cells; CCK8 or CTG); details: Homo sapiens, maximum concentration 10 μM, 5-fold dilution
Experimental: (1) HK-2 cells in the logarithmic growth phase were digested with 0.25% trypsin and counted. The cells were inoculated into 96-well plates at 2000 cells per well, and the 96-well plates were placed and cultured in an incubator containing 5% CO2 at 37° C. for 12 h.
as §2, with “for the compound to be” for “for the compounds to be”
as §1

## CC(C)NC1CC(C(=O)Nc2sc3c(c2-c2nc4ccc(C5=CCNCC5)cc4s2)CCNC3)C1 (stereo not drawn) [Compound 048, 3-(isopropylamino)-N-(3-(6-(1,2,3,6-tetrahydropyridin-4-yl)benzo[d]thiazol-2-yl)-4,5,6,7-tetrahydrothieno[2,3-c]pyridin-2-yl)cyclobutane-1-formylamino]
[1]
  IC50: < 150 nM
[2]
  IC50: 3.35 nM
[3]
  IC50: 1160 nM
